Experiments:
[1] = Serum analysis (biochemical data) in the cross-over study; assay type: in vivo, human; conditions: mean ± SD; after allopurinol treatment; p<0.001 vs baseline and placebo
Description: (§1) Eligible participants were then randomised to either allopurinol up to 300 mg BID or matching placebo for 6 weeks. The dose of allopurinol started at 100 mg OD for the first week, 300 mg OD for the second week and 300 mg BID for the remaining treatment period.
(§2) A p value <0.05 was considered significant.

[2] = cited from earlier work
[3] = test system: patients with chronic stable angina; experiment: Treadmill exercise tolerance test (full Bruce protocol), randomised double-blind placebo-controlled cross-over study; assay type: in vivo, human
Description: The trial was carried out at Ninewells Hospital, UK. It was approved by the Fife, Forth Valley and Tayside Research Ethics Committee and was conducted in accordance with the Declaration of Helsinki. Signed, written informed consent was obtained from each participant.
Individuals aged 18 to 85 years were eligible if they had angiographically documented coronary artery disease, a positive exercise tolerance test (ETT) and a history of symptoms of chronic, stable, effort-induced angina for ≧2 months. Concomitant antianginal medication was allowed.
Exclusion criteria included myocardial infarction ≧2 months, coronary revascularization (percutaneous or CABG) ≧6 months, Left Ventricular Ejection Fraction <45%, estimated GFR <45 ml/min, significant valvular pathology, already on allopurinol, atrial arrhythmias or ECG abnormalities interfering with ST-segment interpretation.
Eligible participants had to manifest ischaemia (ST depression ≧1mm compared to resting ECG) on both visits with a between visit difference in time to ST depression of less than 15%. Otherwise, a third ETT was performed and there had to be a difference of less than 15% between the second and third test.
as §1
The ECG analysis was performed by two independent observers who were both blind to the treatments. The results of each assessment were virtually identical.
as §2

[4] = test system: patients with chronic stable angina; experiment: Haemodynamic responses during exercise testing
angina patients = conditions: references 1-7; cited from earlier work
[5] = median, after 6 weeks allopurinol up to 300 mg BID (600 mg/day) added to existing anti-anginal medication
[6] = mean ± SD, Stage 1 of Bruce protocol

Oc1ncnc2[nH]ncc12 [Allopurinol, 1,5-dihydro-4H-pyrazolo[3,4-d]pyrimidin-4-one]
serum uric acid [1]: 0.14 ± 0.05 mmol/L | solubility in chloroform and in ether ([2]; chloroform, ether): practically insoluble | solubility in dilute solutions of alkali hydroxides ([2]; dilute solutions of alkali hydroxides): dissolves | solubility in water and alcohol ([2]; water and alcohol): only slightly soluble | absolute increase in median time to ST depression ([3]; allopurinol vs baseline): 66 s | increase in median time to ST depression (percent) ([3]; allopurinol vs baseline): 28% | median exercise time higher on allopurinol than on placebo or baseline ([3]; difference of medians): 86 to 92 s | median exercise time higher on allopurinol than on placebo or baseline (percent) ([3]; difference of medians): 30% | increase in time to ST depression by geometric mean ([3]; geometric mean): 22% | Time to ST Depression [3, 5]: 298 s | Total Exercise Time [3, 5]: 393 s | Time to Symptoms ([3]; median, after 6 weeks allopurinol up to 300 mg BID added to existing anti-anginal medication): 304 s | systolic blood pressure change at the end of the first stage of the Bruce protocol ([4]; change from baseline, p=0.026 vs placebo): −6.1 mmHg | HR Stage 1 [4, 6]: 95.6 ± 13.5 bpm | RPP (Rate Pressure Product) Stage 1 [4, 6]: 12756 ± 2798 bpm · mmHg | dBP Stage 1 [4, 6]: 71.7 ± 10.1 mmhg | sBP Stage 1 [4, 6]: 135.5 ± 19.3 mmHg | HR Peak exercise ([4]; mean ± SD, peak exercise): 118.5 ± 15.2 bpm | RPP (Rate Pressure Product) Peak Exercise ([4]; mean ± SD, peak exercise): 18842 ± 3791 bpm · mmHg | dBP Peak Exercise ([4]; mean ± SD, peak exercise): 75.4 ± 11.9 mmhg | sBP Peak exercise ([4]; mean ± SD, peak exercise): 158.7 ± 22.4 mmHg | HR Resting ([4]; mean ± SD, resting): 63.8 ± 8.6 bpm | RPP (Rate Pressure Product) Resting ([4]; mean ± SD, resting): 7910 ± 1577 bpm · mmHg | dBP Resting ([4]; mean ± SD, resting): 72.2 ± 9.9 mmhg | sBP Resting ([4]; mean ± SD, resting): 123.7 ± 16.2 mmHg

CC(C)NCC(O)COc1ccc(CC(N)=O)cc1 (stereo not shown) [atenolol]
increase in time to ST depression, comparable published figures (angina patients): around 50 seconds | increase in time to ST depression, comparable published figures (percent) (angina patients): 15%

COc1cc2c(cc1OC)CC(=O)N(CCCN(C)C[C@H]1Cc3cc(OC)c(OC)cc31)CC2 [ivabradine]
increase in time to ST depression, comparable published figures (angina patients): 46 s | increase in time to ST depression, comparable published figures (percent) (angina patients): 13.5%

COc1ccccc1OCC(O)CN1CCN(CC(=O)Nc2c(C)cccc2C)CC1 (stereo not shown) [ranolazine]
increase in time to ST depression, comparable published figures (angina patients): around 50 seconds | increase in time to ST depression, comparable published figures (percent) (angina patients): 15%
